Assay results from PMC5730406 (European journal of immunology, 2015).

Biological target: T1, Itk F434G/Δ429 (Itkas) (Homo sapiens, UniProt Q08881, DEL429-429/F435G)
T1 sequence (Q08881 with tags, fused parts or gaps DEL429-429/F435G): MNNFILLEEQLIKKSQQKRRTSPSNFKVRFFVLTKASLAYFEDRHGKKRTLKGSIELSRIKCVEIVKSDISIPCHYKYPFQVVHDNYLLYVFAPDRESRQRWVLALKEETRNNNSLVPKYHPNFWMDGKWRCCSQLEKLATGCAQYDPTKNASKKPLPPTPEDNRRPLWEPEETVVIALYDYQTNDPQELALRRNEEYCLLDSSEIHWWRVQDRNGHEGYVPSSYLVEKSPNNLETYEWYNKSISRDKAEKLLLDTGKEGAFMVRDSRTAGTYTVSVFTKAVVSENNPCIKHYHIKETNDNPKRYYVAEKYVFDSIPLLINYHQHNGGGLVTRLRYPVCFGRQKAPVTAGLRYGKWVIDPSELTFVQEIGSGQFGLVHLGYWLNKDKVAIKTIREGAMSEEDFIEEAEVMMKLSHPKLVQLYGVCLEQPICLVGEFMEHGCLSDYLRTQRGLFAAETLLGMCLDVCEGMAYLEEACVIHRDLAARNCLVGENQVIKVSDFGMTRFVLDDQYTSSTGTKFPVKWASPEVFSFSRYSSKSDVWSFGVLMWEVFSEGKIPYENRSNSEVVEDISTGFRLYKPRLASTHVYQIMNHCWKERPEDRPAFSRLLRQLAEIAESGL
Assay type: cell-based

IC50: ~50 nM
SMILES: CC(C)(C)n1nc(Cc2cccc3ccccc23)c2c(N)ncnc21 [1-NM-PP1]
